Measured values: the supplement of paper PMC10307832

Tests used:
Assay in all cases: relative viability (nuclei count vs DMSO), 5 days (fraction); higher = more cells survive
[1] = compound: C(C(=O)C(=O)O)Br [Bromopyruvate] + COc1cc2c(Oc3ccc(NC(=O)C4(C(=O)Nc5ccc(F)cc5)CC4)cc3F)ccnc2cc1OCCCN1CCOCC1 [Foretinib] (partner 0.25 µM)
Summary of the method: (§1)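 Dosing by pin tool came one day after lung cancer cell lines were seeded in 1536-well plates, using either one drug or a fixed anchor-drug dose plus five library-drug doses (not always all listed) in √10 steps. After 5 days, nuclei were counted on 4× images. Relative viability is treated-well nuclei count divided by vehicle-well nuclei count, and values are medians of duplicate plates.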

Bicalutamide + OSI-027 = compound: CC(O)(CS(=O)(=O)c1ccc(F)cc1)C(=O)Nc1ccc(C#N)c(C(F)(F)F)c1 [Bicalutamide] + COc1cccc2cc(-c3nc([C@H]4CC[C@H](C(=O)O)CC4)n4ncnc(N)c34)[nH]c12 [OSI-027] (partner 0.5 µM)
Summary of the method: as §1

[2] = compound: C(C(=O)C(=O)O)Br [Bromopyruvate] + CS(=O)(=O)CCNCc1ccc(-c2ccc3ncnc(Nc4ccc(OCc5cccc(F)c5)c(Cl)c4)c3c2)o1 [Lapatinib] (partner 2 µM)
Summary of the method: as §1

Bicalutamide + AZD7762 = compound: CC(O)(CS(=O)(=O)c1ccc(F)cc1)C(=O)Nc1ccc(C#N)c(C(F)(F)F)c1 [Bicalutamide] + NC(=O)Nc1cc(-c2cccc(F)c2)sc1C(=O)N[C@H]1CCCNC1 [AZD7762] (partner 0.2 µM)
Summary of the method: as §1

| Cell Line | relative viability ([1]; first compound 1 µM) | relative viability ([1]; first compound 3.162 µM) | relative viability ([1]; first compound 10 µM) | relative viability ([1]; first compound 31.62 µM) | relative viability ([1]; first compound 100 µM) | relative viability (Bicalutamide + OSI-027; first compound 0.08 µM) | relative viability (Bicalutamide + OSI-027; first compound 0.253 µM) | relative viability (Bicalutamide + OSI-027; first compound 0.8 µM) | relative viability (Bicalutamide + OSI-027; first compound 2.53 µM) | relative viability ([2]; first compound 10 µM) | relative viability ([2]; first compound 31.62 µM) | relative viability ([2]; first compound 100 µM) | relative viability (Bicalutamide + AZD7762; first compound 0.08 µM) | relative viability (Bicalutamide + AZD7762; first compound 0.253 µM) | relative viability (Bicalutamide + AZD7762; first compound 0.8 µM) | relative viability (Bicalutamide + AZD7762; first compound 2.53 µM) | relative viability ([2]; first compound 1 µM) | relative viability ([2]; first compound 3.162 µM) |
| --- | --- | --- | --- | --- | --- | --- | --- | --- | --- | --- | --- | --- | --- | --- | --- | --- | --- | --- |
| LCLC-97TM1 | 0.843 | 0.916 | 0.917 | 0.965 | 1.02 | 0.598 | 0.37 | 0.627 | 0.422 | 0.864 | 1.28 | 0.82 | 0.388 | 0.186 | 0.225 | 0.232 | – | – |
| LK-2 | 0.865 | 1.35 | 1.57 | 1.12 | 0.894 | 0.195 | 0.189 | 0.194 | 0.207 | 0.871 | 0.967 | 0.826 | 0.432 | 0.254 | 0.442 | 0.495 | 0.936 | 0.88 |
| LOU-NH91 | 0.945 | 0.903 | 0.999 | 0.92 | 0.984 | 0.768 | 0.659 | 0.736 | 0.726 | 0.735 | 0.815 | 0.824 | 0.725 | 0.653 | 0.793 | 0.751 | 0.818 | 0.706 |
| LU99A | 0.834 | 0.81 | 0.812 | 0.773 | 0.846 | 0.282 | 0.258 | 0.345 | 0.233 | 1.12 | 0.992 | 1.09 | 0.431 | 0.286 | 0.544 | 0.252 | 1.05 | 0.898 |
| LXF-289 | 1.02 | 0.997 | 0.965 | 1.01 | 1.04 | 0.816 | 0.725 | 0.851 | 0.672 | 0.935 | 0.914 | 0.959 | 1.17 | 1.05 | 1.11 | 1.1 | 0.967 | 0.879 |
| NCI-H23 | 0.895 | 0.851 | 0.983 | 0.885 | 0.296 | 0.721 | 0.544 | 0.605 | 0.495 | 1.16 | 1.06 | 1.04 | 0.315 | 0.236 | 0.27 | 0.2 | 1.05 | 1.04 |
| NCI-H322M | 0.978 | 0.964 | 1.02 | 0.99 | 1.05 | 0.6 | 0.524 | 0.568 | 0.474 | 0.485 | 0.624 | 0.612 | 0.581 | 0.521 | 0.579 | 0.572 | 0.573 | 0.548 |
| NCI-H358 | 0.764 | 0.71 | 0.761 | 0.598 | 0.653 | 0.903 | 0.651 | 1.01 | 0.67 | 0.482 | 0.483 | 0.451 | 0.562 | 0.489 | 0.64 | 0.547 | 0.435 | 0.449 |
| NCI-H460 | 0.928 | 1.01 | 1.15 | 1.02 | 1 | 0.772 | 0.601 | 1.04 | 0.545 | 1.8 | 1.01 | 0.967 | 0.816 | 0.659 | 0.76 | 0.735 | 0.967 | 0.881 |
| NCI-H596 | 0.86 | 0.946 | 1.02 | 0.685 | 0.232 | 0.854 | 0.659 | 0.845 | 0.763 | 1.15 | 1.01 | 1.16 | 1.13 | 1.04 | 1.08 | 1.11 | 1.11 | 1.08 |
| NCI-H647 | 1.26 | 1.2 | 1.31 | 1.21 | 1.06 | 0.543 | 0.628 | 0.79 | 0.585 | 1.19 | 1.15 | 0.916 | 0.512 | 0.397 | 0.549 | 0.321 | 1.02 | 0.972 |
| NCI-H650 | 1.04 | 1.03 | 1.16 | 1.01 | 0.948 | 0.559 | 0.507 | 0.524 | 0.432 | 0.966 | 0.885 | 0.769 | 0.847 | 1.09 | 1.21 | 0.886 | 1.12 | 1.16 |
| NCI-H727 | 0.9 | 1.08 | 0.728 | 0.93 | 0.802 | 0.573 | 0.546 | 0.623 | 0.442 | 0.862 | 0.781 | 0.86 | 0.794 | 0.563 | 0.54 | 0.576 | 1.13 | 0.928 |
| NCI-H838 | 1.03 | 1.08 | 1.07 | 1.05 | 1.03 | 0.435 | 0.333 | 0.449 | 0.36 | 1.01 | 1.01 | 0.936 | 0.965 | 0.958 | 1.02 | 0.909 | 1.05 | 0.962 |
| NCI-H1355 | 0.954 | 0.966 | 1.08 | 0.909 | 0.995 | 0.433 | 0.367 | 0.464 | 0.4 | 1.06 | 0.995 | 0.965 | 0.828 | 0.701 | 0.923 | 0.72 | 0.978 | 0.986 |
| NCI-H1395 | 0.975 | 0.838 | 1.14 | 1.03 | 1.01 | 0.781 | 0.538 | 0.76 | 0.454 | 1.07 | 0.919 | 0.976 | 0.402 | 0.399 | 0.394 | 0.377 | 1.07 | 0.928 |
| NCI-H1437 | 1.26 | 1.28 | 1.27 | 1.28 | 1.25 | 0.969 | 0.776 | 0.973 | 0.841 | 1.1 | 0.801 | 0.804 | 1.17 | 1.13 | 1.15 | 1.19 | 0.845 | 0.768 |
| NCI-H1651 | 0.728 | 0.902 | 0.904 | 0.849 | 0.91 | 0.654 | 0.562 | 0.856 | 0.694 | 0.905 | 0.764 | 0.829 | 0.513 | 0.396 | 0.549 | 0.436 | 0.858 | 0.909 |
